Data set [1] is described as follows: Body weight, CMT1A mouse study (AAT 50 mg/kg sc twice daily). It counts as in vivo. An excerpt:
As a murine model of CMT1A we used C3-PMP22 transgenic mice (B6.Cg-Tg(PMP22)C3Fbas/J, The Jackson Laboratory) which express three copies of a wild-type human peripheral myelin protein 22 (PMP22) gene (Verhamme, Camiel, et al. Journal of Neuropathology & Experimental Neurology 70.5 (2011): 386-398). Mice were housed in macrolon cages with filter hoods, in a continuously air-filtered room, thereby avoiding contamination. During experiments, paired animals were caged at a constant temperature with a day/night cycle of 12/12 hours. Animals were fed (control tap water and nutrition) ad libitum. Animal protocol is approved by the Animal Studies Committee of Languedoc Roussillon. This protocol and the laboratory procedures comply with French legislation, which implements the European Directives (Reference Number: D3417223, APAFIS #23920-2020020320279696 v3). Animal health was followed on a daily basis to ensure that only animals in good health enter the testing procedures and follow up the study.
(§1) Animals were split in 3 groups (wild-type control (subcutaneous 0.9% NaCl), CMT1A-vehicle (subcutaneous 0.9% NaCl), CMT1A-human alpha-1 antitrypsin (subcutaneous, twice daily, 50 mg/kg per injection)) of 3 mice each (3 weeks old males of 18±2.5 g at the beginning of study) and all went through the following protocol after 7 days of acclimation on site.

In data set [2] the test system is HMC3-MHCII^Luc cells. The experiment in a line: IFNγ-mediated microglial activation, MHCII-driven luciferase activity. It is filed as cell-based, human. To be noted: IFNγ 10 ng/ml; AATs 1, 10 or 25 μM day 0 to day 4. The method, then: • A) Human microglial cells HMC3-MHCII^Luc cells were plated at day 0, activated with IFNγ at day1 until day 2 and measurement of the luciferase activity and cell viability were done at day 4. • B) Activation was measured by the activity of MHCII-driven luciferase and normalized to cell viability. Luciferase activity for all conditions is represented as fold of the untreated control. A potential effect of the highest concentration of the buffer used for drug presentation (IFNγ, AATs) was precluded. All conditions were performed in triplicates, error bars represent standard deviation (FIGS. 1A and 1B).
• A) Human microglial HMC3-MHCII^Luc and HMC3MHCII^Luc; Ubi^AAT cells were plated at day 0, presented IFNγ at day 1 until day 2 and measurement of the luciferase activity and cell viability were done at day 4. • B) AATs were applied from day 0 to day 4 on HMC3-MHCII^Luc cells. Activation was measured by the activity of MHCII-driven luciferase and normalized to cell viability. […]
• A) Human microglial HMC3-MHCII^Luc cells were plated at day 0, presented IFNγ at day 1 until day 2 and measurement of the luciferase activity and cell viability were done at day 4. • B) AATs were applied from day 0 to day 4 on HMC3-MHCII^Luc cells. Activation was measured by the activity of MHCII-driven luciferase and represented as percentage of IFNγ control for all conditions. […]

In data set [3] the test system is plasma TNFα. The experiment in a line: Plasma TNFα concentration, CMT1A mouse study (50 mg/kg twice daily). It counts as in vivo. As to conditions: for Plasma TNFα concentration (Mean ± SEM): CMT1A mice. As for the experimental part: as §1
Starting from the age of 4 weeks, animals were subjected to blood samplings for the determination of interleukin-6 (IL-6) and tumor necrosing factor alpha (TNFα) levels, as described in FIG. 16.

For data set [4], the system named is CMT1A mice B6.Cg-Tg(PMP22)C3Fbas/J. The experiment in a line: Rotarod latency to fall, CMT mice treated with AAT 180 mg/kg/day sc. It counts as in vivo, mouse. For orientation: In the rotarod test animals must keep their balance on a rotating rod.
Data set [5] shares this test system. The experiment in a line: Sciatic nerve electrophysiology (CMAP, NCV), CMT mice treated with AAT 180 mg/kg/day sc. As to conditions: 6 weeks old, CMT + hAAT. It is filed as in vivo, mouse.
Setting [6] is: baseline (6 weeks old), CMT + hAAT, individual animal.

Several values for one entry are separate records, joined by “and”; a condition that tells them apart may be missing. Identical values can stand only once.

Experimental findings from US20260028390A1, “ALPHA1-ANTITRYPSIN FOR USE IN THE TREATMENT OF DISEASES OR DISORDERS OF THE NERVOUS SYSTEM SUCH AS CHRONIC INFLAMMATORY DEMYELINATING POLYNEUROPATHY” (Ageronix SA, priority 2022, published 2026) are described below.

In the case of alpha1-antitrypsin (AAT) protein, the “Body weight, MEAN” value in data set [1] (CMT1A + hAAT, 3rd column, head prints 6 weeks old, in g (unit assumed)) is 19.73. Further, the “Body weight, individual mice” value in data set [1] (CMT1A + hAAT, 3rd column, head prints 6 weeks old, listed as hAAT, in g (unit assumed)) was 19.6 and 20.5 and 19.1. Further, the “body weight loss in the AAT treated group compared to the vehicle group” value in data set [1] (CMT1A mice, 50 mg/kg sc twice daily, two weeks) is “no observable body weight loss”. In addition, the “IFNγ-mediated microglial activation (MHCII-driven luciferase activity)” value in data set [2] was “decreases”. In data set [3] (CMT1A + AAT, day 14 and day 29), the “effect on plasma TNFα levels” value is given as “no effect”. In addition, the “Plasma TNFα concentration (Mean ± SEM)” value in data set [3] (Day 1 (baseline)) was 2.94 ± 0.17 pg/mL. For the same substance, the “Plasma TNFα concentration (Mean ± SEM)” value in data set [3] (Day 8) is on record as 3.70 ± 0.41 pg/mL. Further, the “Plasma TNFα concentration (Mean ± SEM)” value in data set [3] (Day 14) came out at 5.15 ± 0.393 pg/mL. For the same substance, the “Plasma TNFα concentration (Mean ± SEM)” value in data set [3] (Day 29) turned out to be 10.67 ± 0.833 pg/mL. Moreover, the “rotarod latency to fall vs CMT mice not treated with AAT” value in data set [4] (CMT mice, AAT 90 mg/kg sc twice a day, 8 to 10 weeks of age, end of treatment) is “significant increase”. Also, the “Rotarod latency, group Mean” value in data set [4] (baseline (6 weeks old), CMT + hAAT, 8 animals) was found to be 71.46 s. Besides, in data set [4] (setting [6]), the “Rotarod latency, Mean/animal” value is 53.43 s and 52.98 s and 66.74 s and 56.96 s and 66.75 s and 65.56 s and 106.66 s and 102.61 s; the “Rotarod latency, set 1” value was 53.47 s and 57.35 s and 69.94 s and 62.11 s and 65.03 s and 66.86 s and 110.28 s and 93.16 s; the “Rotarod latency, set 2” value is 57.11 s and 51.61 s and 67.40 s and 54.79 s and 72.92 s and 68.48 s and 109.55 s and 105.36 s; the “Rotarod latency, set 3” value is 49.72 s and 49.96 s and 62.87 s and 53.98 s and 62.30 s and 61.35 s and 100.14 s and 109.32 s. In data set [5] (8 mice), the “Amplitude, group MEAN” value was found to be 6.628 mV. In addition, in data set [5] (individual mouse), the Amplitude is 7.828 mV and 3.009 mV and 5.770 mV and 5.919 mV and 7.925 mV and 8.742 mV and 6.803 mV and 7.028 mV; the Conduction velocity is 31.949 m/s and 34.989 m/s and 30.328 m/s and 19.190 m/s and 18.114 m/s and 20.530 m/s and 26.247 m/s and 28.783 m/s; the T1 distal is 7.416 ms and 5.701 ms and 12.428 ms and 5.913 ms and 6.041 ms and 3.664 ms and 4.204 ms and 3.385 ms; the T2 proximal was 7.885 ms and 6.130 ms and 12.922 ms and 6.694 ms and 6.869 ms and 4.395 ms and 4.775 ms and 3.906 ms.
